Assay results taken from patent US20160263087A1, “NOVEL 4-(INDOL-3-YL)-PYRAZOLE DERIVATIVES, PHARMACEUTICAL COMPOSITIONS AND METHODS FOR USE” (ITEOS THERAPEUTICS, priority 2013, published 2016).

Legend:
human TDO2 [1] = biological target: T1, human TDO2 (Homo sapiens, UniProt P48775); assay: Assay for TDO2 enzymatic activity determination; type: biochemical; design: made in house; details: human recombinant TDO2, L-Trp 1 mM, room temperature, one hour, kynurenine absorbance at 480 nm
Description: To measure the TDO2 activity, the reaction mixture contained (final concentrations) potassium phosphate buffer (50 mM, pH 7.5), ascorbic acid (0.25 M), methylene blue (0.125 μM), catalase (40 units/mL, from bovine liver, Sigma), and human recombinant TDO2 enzyme (prepared as described in Dolusic et al. J. Med. Chem.; 2011, 54, 5320-5334; 0.9 μg) without or with the compounds of the present invention at the indicated concentrations (total volume 112.5 μL). The reaction was initiated by the addition of 37.5 μL of L-Trp (final concentration 1 mM) at room temperature. The reaction was conducted at room temperature during one hour and stopped by the addition of 30 μL of 30% (w/v) trichloroacetic acid.
To convert N-formylkynurenine into kynurenine, the reaction mixture was incubated at 65° C. for 30 min. Then 150 μL of the reaction mixture was mixed with 120 μL of 2.5% (w/v) 4-(dimethylamino)-benzaldehyde in acetic acid and incubated for 5 min at room temperature. Kynurenine concentrations were determined by measuring the absorbance at 480 nm. A standard curve was made with pure kynurenine. The TDO activity was measured as described above using ten serial concentrations of the compounds of the present invention. Data were fitted using the Prism software (GraphPad Software, Inc.).

human TDO2 [2] = biological target: T1, human TDO2; assay: Cellular assay for TDO2 activity, hTDO2-overexpressing P815 cells; type: cell-based; design: expressed in transfected cells; host or cells: murine mastocytoma P815 cells; details: murine mastocytoma P815 cells overexpressing hTDO2, overnight incubation, kynurenine absorbance at 480 nm
Description: The assay was performed in 96-well flat bottom plates seeded with murine mastocytoma P815 cells overexpressing hTDO2 (prepared as described in Pilotte et al., PNAS, 2012, 109(7), 2497-2502), at a concentration of 5×10^4 cells/well in a final volume of 200 μL. To determine TDO or IDO activity, the cells were incubated overnight at 37° C. at 5% CO2 in IMDM (Invitrogen) supplemented with 2% FBS and 2% penicillin/streptomycin in the presence of the compounds of the present invention, at different concentrations.
The plates were then centrifuged 5 min at 1000 rpm, and 100 μL of the supernatant were collected in a conical plate, 30 uL of TCA 30% were added and a further centrifugated at 3000×g for 10 minutes. 100 μL of the supernatant were collected in a flat bottomed plate and 100 μL of 2% (w/v) 4-(dimethylamino)-benzaldehyde in acetic acid and incubated for 5 min at room temperature. Kynurenine concentrations were determined by measuring the absorbance at 480 nm. A standard curve was made with pure kynurenine. The TDO activity was measured as described above using ten serial concentrations of the compounds of the present invention. Data were fitted using the Prism software (GraphPad Software, Inc.).

T1 sequence (P48775 whole entry): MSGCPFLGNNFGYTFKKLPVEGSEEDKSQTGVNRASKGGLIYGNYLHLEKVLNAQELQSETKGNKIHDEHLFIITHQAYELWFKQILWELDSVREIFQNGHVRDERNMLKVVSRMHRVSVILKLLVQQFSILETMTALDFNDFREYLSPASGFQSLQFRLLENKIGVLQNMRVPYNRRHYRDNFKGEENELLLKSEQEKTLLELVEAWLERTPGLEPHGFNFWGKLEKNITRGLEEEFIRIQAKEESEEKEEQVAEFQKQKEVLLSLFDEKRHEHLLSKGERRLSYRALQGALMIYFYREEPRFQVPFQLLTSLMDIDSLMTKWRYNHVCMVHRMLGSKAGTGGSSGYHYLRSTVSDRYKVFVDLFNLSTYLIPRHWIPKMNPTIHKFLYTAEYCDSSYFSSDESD

melting point [°C] | IC50 (human TDO2 [1]) [µM] | Structure (SMILES) | further results
184.5 to 185.5 | – | CC(Cn1cc(-c2c[nH]c3cc(F)ccc23)cn1)C(N)=O (single isomer, unassigned) [Compound 35, 3-(4-(6-fluoro-1H-indol-3-yl)-1H-pyrazol-1-yl)-2-methylpropanamide] | –
173.3 to 175 | – | NC(=O)CCn1cc(-c2c[nH]c3cc(F)ccc23)cn1 [Compound 7, 3-(4-(6-fluoro-1H-indol-3-yl)-1H-pyrazol-1-yl)propanamide] | –
– | 1 to 10 | NC(=O)CCn1cc(-c2c[nH]c3cc(F)c(F)cc23)cn1 [Compound 8, 3-(4-(5,6-difluoro-1H-indol-3-yl)-1H-pyrazol-1-yl)propanamide] | –
– | 1 to 10 | Cc1nn(CCC(N)=O)c(C)c1-c1c[nH]c2cc(F)ccc12 [Compound 9, 3-(4-(6-fluoro-1H-indol-3-yl)-3,5-dimethyl-1H-pyrazol-1-yl)propanamide] | –
179.5 to 180.8 | – | CC(=O)NCCn1cc(-c2c[nH]c3cc(F)ccc23)cn1 [Compound 21, N-(2-(4-(6-fluoro-1H-indol-3-yl)-1H-pyrazol-1-yl)ethyl)acetamide] | –
94.2 to 95.2 | – | CNCCn1cc(-c2c[nH]c3cc(F)ccc23)cn1 [Compound 24, 2-(4-(6-fluoro-1H-indol-3-yl)-1H-pyrazol-1-yl)-N-methylethanamine] | –
153.3 to 155.1 | – | CS(=O)(=O)CCn1cc(-c2c[nH]c3cc(F)ccc23)cn1 [Compound 31, 6-fluoro-3-(1-(2-(methylsulfonyl)ethyl)-1H-pyrazol-4-yl)-1H-indole] | –
– | 10 to 100 | Cc1nn(CCS(C)(=O)=O)c(C)c1-c1c[nH]c2cc(F)ccc12 [Compound 33, 3-(3,5-dimethyl-1-(2-(methylsulfonyl)ethyl)-1H-pyrazol-4-yl)-6-fluoro-1H-indole] | –
– | 1 to 10 | NC(=O)C(O)Cn1cc(-c2c[nH]c3cc(F)ccc23)cn1 (centres unmarked) [Compound 37, 3-(4-(6-fluoro-1H-indol-3-yl)-1H-pyrazol-1-yl)-2-hydroxypropanamide] | IC50 (human TDO2 [2]): < 1 µM
– | 10 to 100 | Cc1nn(CC2CCNCC2)c(C)c1-c1c[nH]c2cc(F)ccc12 [Compound 55, 3-(3,5-dimethyl-1-(piperidin-4-ylmethyl)-1H-pyrazol-4-yl)-6-fluoro-1H-indole] | –
– | < 1 | Cc1nn(CC2CCNCC2)cc1-c1c[nH]c2cc(F)ccc12 [Compound 56, 6-fluoro-3-(3-methyl-1-(piperidin-4-ylmethyl)-1H-pyrazol-4-yl)-1H-indole] | –
– | 1 to 10 | Cc1c(-c2c[nH]c3cc(F)ccc23)cnn1CC1CCNCC1 [Compound 57, 6-fluoro-3-(5-methyl-1-(piperidin-4-ylmethyl)-1H-pyrazol-4-yl)-1H-indole] | –
223 to 224.6 | – | CN(C)C(=O)N1CCC(n2cc(-c3c[nH]c4cc(F)ccc34)cn2)CC1 [Compound 90, 4-(4-(6-fluoro-1H-indol-3-yl)-1H-pyrazol-1-yl)-N,N-dimethylpiperidine-1-carboxamide] | –
– | 10 to 100 | CC(=O)N1CCC(n2cc(-c3c[nH]c4cc(F)ccc34)c(C)n2)CC1 [Compound 94, 1-(4-(4-(6-fluoro-1H-indol-3-yl)-3-methyl-1H-pyrazol-1-yl)piperidin-1-yl)ethanone] | –
– | 1 to 10 | CC(=O)N1CCC(n2ncc(-c3c[nH]c4cc(F)ccc34)c2C)CC1 [Compound 95, 1-(4-(4-(6-fluoro-1H-indol-3-yl)-5-methyl-1H-pyrazol-1-yl)piperidin-1-yl)ethanone] | –

The remaining lines, values behind:

Structure (SMILES) | melting point [°C] | IC50 (human TDO2 [1]) [µM] | further results
CS(=O)(=O)CCn1cc(-c2c[nH]c3cc(F)c(F)cc23)cn1 [Compound 32, 5,6-difluoro-3-(1-(2-(methylsulfonyl)ethyl)-1H-pyrazol-4-yl)-1H-indole] | 170.6 to 171.9 | – | –
Fc1cc2[nH]cc(-c3cnn(CC4CCNCC4)c3)c2cc1F [Compound 44, 5,6-difluoro-3-(1-(piperidin-4-ylmethyl)-1H-pyrazol-4-yl)-1H-indole] | 167.1 to 168.9 | – | –
Fc1ccc2c(-c3cnn(CC4CCOCC4)c3)c[nH]c2c1 [Compound 58, 6-fluoro-3-(1-((tetrahydro-2H-pyran-4-yl)methyl)-1H-pyrazol-4-yl)-1H-indole] | 138.9 to 139.6 | – | –
O=S1(=O)CCC(Cn2cc(-c3c[nH]c4cc(F)ccc34)cn2)CC1 [Compound 60, 4-((4-(6-fluoro-1H-indol-3-yl)-1H-pyrazol-1-yl)methyl)tetrahydro-2H-thiopyran 1,1-dioxide] | 193.1 to 194.1 | – | –
NC(=O)[C@H]1CC[C@H](n2cc(-c3c[nH]c4cc(F)ccc34)cn2)CC1 [Compound 67, (1R,4R)-4-(4-(6-fluoro-1H-indol-3-yl)-1H-pyrazol-1-yl)cyclohexanecarboxamide] | – | – | IC50 (human TDO2 [2]): 1 to 10 µM
Fc1ccc2c(-c3cnn(C4CCNCC4)c3)c[nH]c2c1 [Compound 78, 6-fluoro-3-(1-(piperidin-4-yl)-1H-pyrazol-4-yl)-1H-indole] | 240.1 to 241.8 | – | –
O=C(O)CCC(=O)N1CCC(n2cc(-c3c[nH]c4cc(F)ccc34)cn2)CC1 [Compound 80, 4-(4-(4-(6-fluoro-1H-indol-3-yl)-1H-pyrazol-1-yl)piperidin-1-yl)-4-oxobutanoic acid] | 226 to 228 | – | –
CN(C)CC(=O)N1CCC(n2cc(-c3c[nH]c4cc(F)ccc34)cn2)CC1 [Compound 83, 2-(dimethylamino)-1-(4-(4-(6-fluoro-1H-indol-3-yl)-1H-pyrazol-1-yl)piperidin-1-yl)ethanone] | 193.7 to 196.1 | – | –
O=C(CO)N1CCC(n2cc(-c3c[nH]c4cc(F)ccc34)cn2)CC1 [Compound 84, 1-(4-(4-(6-fluoro-1H-indol-3-yl)-1H-pyrazol-1-yl)piperidin-1-yl)-2-hydroxyethanone] | 99.9 to 102.1 | – | –
CC(C)C(=O)N1CCC(n2cc(-c3c[nH]c4cc(F)ccc34)cn2)CC1 [Compound 86, 1-(4-(4-(6-fluoro-1H-indol-3-yl)-1H-pyrazol-1-yl)piperidin-1-yl)-2-methylpropan-1-one] | 210.2 to 211 | – | –
CC(C)(C)C(=O)N1CCC(n2cc(-c3c[nH]c4cc(F)ccc34)cn2)CC1 [Compound 87, 1-(4-(4-(6-fluoro-1H-indol-3-yl)-1H-pyrazol-1-yl)piperidin-1-yl)-2,2-dimethylpropan-1-one] | 231 to 232 | – | –
O=C(C1CC1)N1CCC(n2cc(-c3c[nH]c4cc(F)ccc34)cn2)CC1 [Compound 88, cyclopropyl(4-(4-(6-fluoro-1H-indol-3-yl)-1H-pyrazol-1-yl)piperidin-1-yl)methanone] | 190.7 to 191.4 | – | –
CN1CCC(n2cc(-c3c[nH]c4cc(F)ccc34)cn2)CC1 [Compound 91, 6-fluoro-3-(1-(1-methylpiperidin-4-yl)-1H-pyrazol-4-yl)-1H-indole] | 222.8 to 223.7 | – | –
O=S(=O)(N1CCC(n2cc(-c3c[nH]c4cc(F)ccc34)cn2)CC1)C(F)(F)F [Compound 92, 6-fluoro-3-(1-(1-((trifluoromethyl)sulfonyl)piperidin-4-yl)-1H-pyrazol-4-yl)-1H-indole] | – | 1 to 10 | –
COCCS(=O)(=O)N1CCC(n2cc(-c3c[nH]c4cc(F)ccc34)cn2)CC1 [Compound 96, 6-fluoro-3-(1-(1-((2-methoxyethyl)sulfonyl)piperidin-4-yl)-1H-pyrazol-4-yl)-1H-indole] | – | 1 to 10 | –
O=S(=O)(C1CC1)N1CCC(n2cc(-c3c[nH]c4cc(F)ccc34)cn2)CC1 [Compound 97, 3-(1-(1-(cyclopropylsulfonyl)piperidin-4-yl)-1H-pyrazol-4-yl)-6-fluoro-1H-indole] | – | 1 to 10 | –
CCS(=O)(=O)N1CCC(n2cc(-c3c[nH]c4cc(F)ccc34)cn2)CC1 [Compound 98, 3-(1-(1-(ethylsulfonyl)piperidin-4-yl)-1H-pyrazol-4-yl)-6-fluoro-1H-indole] | – | 1 to 10 | –
CC(C)S(=O)(=O)N1CCC(n2cc(-c3c[nH]c4cc(F)ccc34)cn2)CC1 [Compound 99, 6-fluoro-3-(1-(1-(isopropylsulfonyl)piperidin-4-yl)-1H-pyrazol-4-yl)-1H-indole] | – | 1 to 10 | –
C=CC(=O)N1CCC(n2cc(-c3c[nH]c4cc(F)ccc34)cn2)CC1 [Compound 102, 1-(4-(4-(6-fluoro-1H-indol-3-yl)-1H-pyrazol-1-yl)piperidin-1-yl)prop-2-en-1-one] | – | 1 to 10 | –
